Entries after “also recorded” stand apart in the source; their conditions may differ.
System: HEK293T cells and NIH3T3 cells
Assay: Evaluation of toxicity (CellTiter-Fluor Cell Viability Assay, CTF)
Assay type: cell-based
Conditions: lipid nanoparticle containing mRNA; number of surviving cells relative to cells without lipid nanoparticle set at 1; one rating per lipid, printed on the HEK293T line
Description: For lipids (Ia), (Ib), and (Ie) of Examples 1, 2, and 5, a cell experiment was carried out by using HEK293T cells and NIH3T3 cells in order to evaluate lipid nanoparticles encapsulating an mRNA. By transfecting the cells with lipid nanoparticles and measuring the amount of a predetermined protein produced, the performance of the lipid nanoparticles used can be evaluated. Hereinafter, the procedure of the cell experiment will be shown.
A. Seeding of Cells • (i) A liquid medium (DMEM High glucose, FBS+, P/S+) was temperature-controlled in an incubator set at 37° C. • (ii) A cryotube containing cells was taken out from a −80° C. freezer and thawed at once in the incubator set at 37° C. • (iii) A test tube was subjected to a centrifuge to precipitate the cells. • (iv) The supernatant was aspirated, and the liquid medium was added and gently tapped to disperse the cells. • (v) A small amount of the cells-dispersed liquid medium was collected, and the number of cells was observed and counted under a microscope. • (vi) The cells were seeded in three 24-well black plates such that the number of cells was 1×10^4 cells per well. The 24-well black plates were placed in an incubator, and the cells were cultured for 24 hours under conditions of 37° C. and 5% CO2. […]
D. Evaluation of Toxicity (CellTiter-Fluor (Registered Trademark) Cell Viability Assay) • (i) The CellTiter-Fluor (registered trademark) Cell Viability (CTF) Assay Reagent was completely thawed in a 37° C. water bath. • (ii) GF-AFC Substrate was uniformly mixed by using a vortex mixer. • (iii) The required amounts of Buffer and GF-AFC Substrate attached to the CTF Assay Reagent (Kit) were mixed at a mixing ratio of 10 mL:10 μL. • (iv) 100 μL per well of the mixed CTF Reagent mixture was added to a 24-well black plate containing the cells cultured in B. (v) above, and the plate was quickly shielded from light with aluminum foil, and then shaken on a plate shaker for 30 seconds. • (v) The plate was placed in an incubator, […], and the cells were cultured for 30 minutes under conditions of 37° C. and 5% CO2. • (vi) The fluorescence intensity was measured with a plate reader (excitation wavelength of 380 nm, fluorescence wavelength of 505 nm). Based on the obtained measurement results, the number of surviving cells was calculated with the fluorescence intensity of cells to which no lipid nanoparticle was added set at 1. […]

Row | SMILES | CTF Assay
1 | CCCCCCCC/C=C\CCCCCCCCC(CCCCCCC/C=C\CCCCCCCC)OC(=O)C(CC(=O)O)NC(=O)C(N)CCCNC(=N)N (stereo not drawn) [Example 1, 3-(2-amino-5-guanidinopentanamido)-4-(((9Z,27Z)-hexatriaconta-9,27-dien-18-yl)oxy)-4-oxobutanoic acid] | low cytotoxicity; also recorded: ⊚ (When the number of surviving cells was more than 0.80 and 1.00 or less, a rating of double-circle (excellent) was given)
2 | CCCCCCCC/C=C\CCCCCCCCC(CCCCCCC/C=C\CCCCCCCC)OC(=O)C(CCC(=O)O)NC(=O)C(N)CCCNC(=N)N (stereo not drawn) [Example 2, 4-(2-amino-5-guanidinopentanamido)-5-(((9Z,27Z)-hexatriaconta-9,27-dien-18-yl)oxy)-5-oxopentanoic acid] | low cytotoxicity; also recorded: ⊚ (When the number of surviving cells was more than 0.80 and 1.00 or less, a rating of double-circle (excellent) was given)
3 | CCCCCCCC/C=C\CCCCCCCCC(CCCCCCC/C=C\CCCCCCCC)OC(=O)C(NC(=O)C(N)CCCNC(=N)N)C(C)O [Example 5, (9Z,27Z)-hexatriaconta-9,27-dien-18-yl (2S)-2-((S)-2-amino-5-guanidinopentanamido)-3-hydroxybutanoate] | low cytotoxicity; also recorded: ⊚ (When the number of surviving cells was more than 0.80 and 1.00 or less, a rating of double-circle (excellent) was given)

Reference: patent US20240148664A1, “LIPID AND COMPOSITION” (SOGO PHARMACEUTICAL CO., LTD., priority 2021, published 2024)
